In US10770169B2, “Method of providing a treatment to a subject based on a dynamic pathway map” (THE REGENTS OF THE UNIVERSITY OF CALIFORNIA, priority 2010, dated 2020):
Read-outs that look alike come from different tables or passages of the source.

Test system: panel of 55 breast cancer cell lines
Experiment: Cell growth inhibition assay (Cell Titer Glo, 72 h, 9 doses; GI50, TGI, LC50)
Type: cell-based, human
Conditions: Homo sapiens, read-out: GI50 (converted)

With `COC1=C2C[C@@H](C)C[C@H](OC)[C@H](O)[C@@H](C)/C=C(\C)[C@H](OC(N)=O)[C@@H](OC)/C=C\C=C(/C)C(=O)NC(=CC1=O)C2=O` [Geldanamycin] as the compound, how does the GI50 (600MPE cell line, censored GI50 values) read?
Its GI50 is 38.9 nM.

What about the GI50 (AU565, AU565 cell line, censored GI50 values) of the same compound?
Its GI50 is 51.3 nM.

And the GI50 (AU565, cell line AU565)?
The GI50 was 51.3 nM.

What about the GI50 (BT-474, BT474 cell line, censored GI50 values) of the same compound?
The GI50 was 14.5 nM.

And the GI50 (BT-474, cell line BT474)?
The GI50 was 14.5 nM.

What about the GI50 (BT-483, BT483 cell line, censored GI50 values) of the same compound?
The GI50 was 145 nM.

What about the GI50 (BT-483, cell line BT483) of the same compound?
Its GI50 is 145 nM.

And the GI50 (BT-549, BT549 cell line, censored GI50 values)?
Its GI50 is 5.5 nM.

And the GI50 (BT-549, cell line BT549)?
The GI50 was 5.5 nM.

And the GI50 (CAMA-1, CAMA1 cell line, censored GI50 values)?
Its GI50 is 79.4 nM.

What about the GI50 (CAMA-1, cell line CAMA1) of the same compound?
Its GI50 is 79.4 nM.

And the GI50 (HCC38, HCC38 cell line, censored GI50 values)?
The GI50 was 28.8 nM.

And the GI50 (HCC38, cell line HCC38)?
The GI50 was 28.8 nM.

And the GI50 (HCC70, HCC70 cell line, censored GI50 values)?
Its GI50 is 93.3 nM.

What about the GI50 (HCC70, cell line HCC70) of the same compound?
The GI50 was 93.3 nM.

What about the GI50 (HCC202, HCC202 cell line, censored GI50 values) of the same compound?
The GI50 was 1.48 nM.

What about the GI50 (HCC202, cell line HCC202) of the same compound?
The GI50 was 1.48 nM.

And the GI50 (HCC1143, HCC1143 cell line, censored GI50 values)?
Its GI50 is 81.3 nM.

What about the GI50 (HCC1143, cell line HCC1143) of the same compound?
Its GI50 is 81.3 nM.

And the GI50 (HCC1187, HCC1187 cell line, censored GI50 values)?
Its GI50 is 15.8 nM.

What about the GI50 (HCC1187, cell line HCC1187) of the same compound?
Its GI50 is 15.8 nM.

And the GI50 (HCC1395, HCC1395 cell line, censored GI50 values)?
The GI50 was 61.7 nM.

And the GI50 (HCC1395, cell line HCC1395)?
Its GI50 is 61.7 nM.

What about the GI50 (HCC1419, HCC1419 cell line, censored GI50 values) of the same compound?
The GI50 was 32.4 nM.

What about the GI50 (HCC1419, cell line HCC1419) of the same compound?
Its GI50 is 32.4 nM.

What about the GI50 (HCC1428, HCC1428 cell line, censored GI50 values) of the same compound?
The GI50 was 31.6 nM.

And the GI50 (HCC1428, cell line HCC1428)?
Its GI50 is 31.6 nM.

And the GI50 (HCC1500, HCC1500 cell line, censored GI50 values)?
Its GI50 is 155 nM.

What about the GI50 (HCC1500, cell line HCC1500) of the same compound?
The GI50 was 155 nM.

What about the GI50 (HCC1806, HCC1806 cell line, censored GI50 values) of the same compound?
The GI50 was 75.9 nM.

What about the GI50 (HCC1806, cell line HCC1806) of the same compound?
The GI50 was 75.9 nM.

And the GI50 (HCC1937, HCC1937 cell line, censored GI50 values)?
Its GI50 is 29.5 nM.

And the GI50 (HCC1937, cell line HCC1937)?
The GI50 was 29.5 nM.

And the GI50 (HCC1954, HCC1954 cell line, censored GI50 values)?
The GI50 was 7.24 nM.

And the GI50 (HCC1954, cell line HCC1954)?
The GI50 was 7.24 nM.

And the GI50 (HCC2185 cell line, censored GI50 values)?
The GI50 was 18.2 nM.

What about the GI50 (HCC3153 cell line, censored GI50 values) of the same compound?
The GI50 was 67.6 nM.

And the GI50 (LY2 cell line, censored GI50 values)?
Its GI50 is 100 nM.

And the GI50 (MCF7, MCF7 cell line, censored GI50 values)?
The GI50 was 240 nM.

And the GI50 (MCF7, cell line MCF7)?
Its GI50 is 240 nM.

And the GI50 (MDA-MB-134-VI, MDAMB134VI cell line, censored GI50 values)?
The GI50 was 20.9 nM.

And the GI50 (MDA-MB-175-VII, MDAMB175VII cell line, censored GI50 values)?
The GI50 was 17.8 nM.

And the GI50 (MDA-MB-231, MDAMB231 cell line, censored GI50 values)?
Its GI50 is 28.8 nM.

What about the GI50 (MDA-MB-231, cell line MDAMB231) of the same compound?
The GI50 was 28.8 nM.

What about the GI50 (MDA-MB-361, MDAMB361 cell line, censored GI50 values) of the same compound?
The GI50 was 25.7 nM.

And the GI50 (MDA-MB-361, cell line MDAMB361)?
Its GI50 is 25.7 nM.

And the GI50 (MDA-MB-415, MDAMB415 cell line, censored GI50 values)?
Its GI50 is 57.5 nM.

And the GI50 (MDA-MB-415, cell line MDAMB415)?
Its GI50 is 57.5 nM.

And the GI50 (MDA-MB-436, MDAMB436 cell line, censored GI50 values)?
Its GI50 is 148 nM.

What about the GI50 (MDA-MB-436, cell line MDAMB436) of the same compound?
Its GI50 is 148 nM.

What about the GI50 (MDA-MB-453, MDAMB453 cell line, censored GI50 values) of the same compound?
The GI50 was 19.5 nM.

What about the GI50 (MDA-MB-453, cell line MDAMB453) of the same compound?
Its GI50 is 19.5 nM.

What about the GI50 (MDA-MB-468, MDAMB468 cell line, censored GI50 values) of the same compound?
Its GI50 is 27.5 nM.

What about the GI50 (MDA-MB-468, cell line MDAMB468) of the same compound?
The GI50 was 27.5 nM.

And the GI50 (SK-BR-3, SKBR3 cell line, censored GI50 values)?
The GI50 was 16.2 nM.

And the GI50 (SK-BR-3, cell line SKBR3)?
Its GI50 is 16.2 nM.

What about the GI50 (SUM52PE, SUM52PE cell line, censored GI50 values) of the same compound?
Its GI50 is 12 nM.

What about the GI50 (SUM52PE, cell line SUM52PE) of the same compound?
Its GI50 is 12 nM.

What about the GI50 (SUM149PT, SUM149PT cell line, censored GI50 values) of the same compound?
Its GI50 is 6.03 nM.

And the GI50 (SUM149PT, cell line SUM149PT)?
The GI50 was 6.03 nM.

And the GI50 (SUM185PE, SUM185PE cell line, censored GI50 values)?
Its GI50 is 20 nM.

And the GI50 (SUM185PE, cell line SUM185PE)?
The GI50 was 20 nM.

What about the GI50 (SUM1315MO2, SUM1315MO2 cell line, censored GI50 values) of the same compound?
Its GI50 is 38 nM.

What about the GI50 (SUM-159-PT, SUM159PT cell line, censored GI50 values) of the same compound?
Its GI50 is 6.31 nM.

What about the GI50 (SUM-159-PT, cell line SUM159PT) of the same compound?
The GI50 was 6.31 nM.

And the GI50 (UACC-812, UACC812 cell line, censored GI50 values)?
The GI50 was 12.3 nM.

What about the GI50 (UACC-812, cell line UACC812) of the same compound?
The GI50 was 12.3 nM.

What about the GI50 (UACC-893, UACC893 cell line, censored GI50 values) of the same compound?
The GI50 was 11 nM.

What about the GI50 (UACC-893, cell line UACC893) of the same compound?
Its GI50 is 11 nM.

And the GI50 (ZR-75-1, ZR751 cell line, censored GI50 values)?
The GI50 was 117 nM.

And the GI50 (ZR-75-1, cell line ZR751)?
Its GI50 is 117 nM.

And the GI50 (ZR-75-30, ZR7530 cell line, censored GI50 values)?
Its GI50 is 7.08 nM.

What about the GI50 (ZR-75-30, cell line ZR7530) of the same compound?
Its GI50 is 7.08 nM.

And the GI50 (ZR-75B, ZR75B cell line, censored GI50 values)?
The GI50 was 93.3 nM.

And the GI50 (ZR-75B, cell line ZR75B)?
The GI50 was 93.3 nM.

What about the GI50 (cell line 600MPE) of the same compound?
Its GI50 is 38.9 nM.

And the GI50 (cell line HCC2185)?
The GI50 was 18.2 nM.

And the GI50 (cell line HCC3153)?
Its GI50 is 67.6 nM.

What about the GI50 (cell line LY2) of the same compound?
The GI50 was 100 nM.

What about the GI50 (cell line MDAMB134V) of the same compound?
Its GI50 is 20.9 nM.

What about the GI50 (cell line MDAMB175V) of the same compound?
The GI50 was 17.8 nM.

What about the GI50 (cell line SUM1315MO) of the same compound?
The GI50 was 38 nM.
